Results published in ChEMBL document CHEMBL1140311, “Design and synthesis of new nonsteroidal glucocorticoid modulators through application of an "agreement docking" method” (J Med Chem, 2005).

Experiments:
Glucocorticoid receptor [1] = target: T1, Glucocorticoid receptor (Homo sapiens, UniProt P04150); assay: Antagonist activity for Glucocorticoid receptor in MMTV transactivation assay in human A549 lung epithelial cells at 10 uM; format: functional, cell-based
T1 sequence (P04150 whole entry): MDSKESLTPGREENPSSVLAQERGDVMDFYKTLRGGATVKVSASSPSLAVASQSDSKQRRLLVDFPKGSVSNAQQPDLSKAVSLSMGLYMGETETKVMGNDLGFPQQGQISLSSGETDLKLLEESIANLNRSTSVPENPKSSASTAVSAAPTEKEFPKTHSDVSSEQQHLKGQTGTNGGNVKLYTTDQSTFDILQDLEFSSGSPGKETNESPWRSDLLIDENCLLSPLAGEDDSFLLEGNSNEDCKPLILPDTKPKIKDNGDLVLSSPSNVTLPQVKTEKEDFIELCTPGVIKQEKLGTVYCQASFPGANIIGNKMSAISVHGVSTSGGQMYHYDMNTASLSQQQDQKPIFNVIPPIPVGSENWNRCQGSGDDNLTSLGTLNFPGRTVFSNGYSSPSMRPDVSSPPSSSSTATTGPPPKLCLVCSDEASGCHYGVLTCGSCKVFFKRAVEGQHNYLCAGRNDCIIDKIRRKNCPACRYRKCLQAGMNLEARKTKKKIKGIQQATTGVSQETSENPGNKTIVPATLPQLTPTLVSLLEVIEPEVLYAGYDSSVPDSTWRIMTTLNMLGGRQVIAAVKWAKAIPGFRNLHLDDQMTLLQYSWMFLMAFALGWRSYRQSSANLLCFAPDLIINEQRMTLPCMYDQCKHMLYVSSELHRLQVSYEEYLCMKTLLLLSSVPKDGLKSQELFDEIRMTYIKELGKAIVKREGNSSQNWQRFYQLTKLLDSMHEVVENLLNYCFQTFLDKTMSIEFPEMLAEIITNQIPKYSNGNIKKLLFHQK

[2] = Binding affinity for glucocorticoid receptor
[3] = target: T2, Glucocorticoid receptor (Homo sapiens) (UniProt P04150); assay: Glucocorticoid receptor mediated transrepression of NFkB reporter gene in human A549 lung epithelial cells at 10 uM; format: functional, cell-based
T2 sequence (whole entry): T1 sequence (P04150 whole entry)

Glucocorticoid receptor [4] = target: T1, Glucocorticoid receptor; assay: Glucocorticoid receptor mediated transrepression of NFkB reporter gene in human A549 lung epithelial cells; format: functional, cell-based

Cc1noc(=O)c2ccc(NC(=O)C(O)(CC3CCc4ccccc43)C(F)(F)F)cc12 (configuration not stated)
IC50 (Glucocorticoid receptor [1]): 4790 nM | Log IC50 [2]: -7.81 | Max inhibition [3]: 73%

Cc1noc(=O)c2ccc(NC(=O)C(O)(CC3CCCc4ccccc43)C(F)(F)F)cc12 (stereo in doubt; 9d (D2E2)) [listing 1 of 2 here]
IC50 (Glucocorticoid receptor [1]): 3890 nM | Log IC50 [2]: -7.15

Cc1noc(=O)c2ccc(NC(=O)C(O)(CC3CCCc4ccccc43)C(F)(F)F)cc12 (stereo in doubt; 9d (D2E2)) [listing 2 of 2 here]
Max inhibition [3]: 23%

Cc1noc(=O)c2ccc(NC(=O)C(O)(CC3CCCc4ccccc43)C(F)(F)F)cc12 (stereo in doubt; 9e (D1E1)) [listing 1 of 2 here]
IC50 (Glucocorticoid receptor [1]): 562 nM | Log IC50 [2]: -8.08

Cc1noc(=O)c2ccc(NC(=O)C(O)(CC3CCCc4ccccc43)C(F)(F)F)cc12 (stereo in doubt; 9e (D1E1)) [listing 2 of 2 here]
Max inhibition [3]: 51%

Cc1noc(=O)c2ccc(NC(=O)C(O)(CC3CCCCc4ccccc43)C(F)(F)F)cc12 (stereo in doubt; 15a (D1E2)) [listing 1 of 2 here]
IC50 (Glucocorticoid receptor [4]): 145 nM | IC50 (Glucocorticoid receptor [1]): 708 nM | Log IC50 [2]: -8.57

Cc1noc(=O)c2ccc(NC(=O)C(O)(CC3CCCCc4ccccc43)C(F)(F)F)cc12 (stereo in doubt; 15a (D1E2)) [listing 2 of 2 here]
Max inhibition [3]: 60%

Cc1noc(=O)c2ccc(NC(=O)C(O)(CC3CCCCc4ccccc43)C(F)(F)F)cc12 (stereo in doubt; 15b (D2E1)) [listing 1 of 2 here]
IC50 (Glucocorticoid receptor [1]): 1000 nM | Log IC50 [2]: -7.75

Cc1noc(=O)c2ccc(NC(=O)C(O)(CC3CCCCc4ccccc43)C(F)(F)F)cc12 (stereo in doubt; 15b (D2E1)) [listing 2 of 2 here]
Max inhibition [3]: 24%

C[C@@H]1C[C@H]2[C@@H]3CCC4=CC(=O)C=C[C@]4(C)[C@@]3(F)[C@@H](O)C[C@]2(C)[C@@]1(O)C(=O)CO [DEXAMETHASONE]
Log IC50 [2]: -8.1
